In one assay the target is T1, Coagulation factor XII (Homo sapiens, UniProt P00748).
T1 sequence (P00748 whole entry): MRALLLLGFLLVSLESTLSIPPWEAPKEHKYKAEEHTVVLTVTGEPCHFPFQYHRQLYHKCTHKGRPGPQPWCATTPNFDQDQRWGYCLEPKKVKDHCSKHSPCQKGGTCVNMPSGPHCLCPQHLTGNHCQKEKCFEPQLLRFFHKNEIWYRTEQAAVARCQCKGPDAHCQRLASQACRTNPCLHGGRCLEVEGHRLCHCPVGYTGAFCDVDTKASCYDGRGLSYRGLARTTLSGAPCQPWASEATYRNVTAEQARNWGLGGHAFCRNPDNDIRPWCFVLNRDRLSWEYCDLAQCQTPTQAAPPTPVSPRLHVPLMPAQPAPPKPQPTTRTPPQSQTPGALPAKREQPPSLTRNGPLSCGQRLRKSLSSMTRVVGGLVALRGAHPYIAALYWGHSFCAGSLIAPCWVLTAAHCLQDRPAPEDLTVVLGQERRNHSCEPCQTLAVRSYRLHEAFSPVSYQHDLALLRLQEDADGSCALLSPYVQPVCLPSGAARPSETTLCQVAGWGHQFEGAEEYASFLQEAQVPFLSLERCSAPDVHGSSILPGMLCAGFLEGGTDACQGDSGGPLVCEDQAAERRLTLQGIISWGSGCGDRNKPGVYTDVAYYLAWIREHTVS
In words: activated coagulation factor XII inhibitor potency, concentration-effect curve, cell-free (AID 716). Type of assay: functional.

Assay [1] concerns the target DNA dC->dU-editing enzyme APOBEC-3A (Homo sapiens, UniProt P31941). The experiment in a line: Dose Response confirmation of small molecule APOBEC3A DNA Deaminase Inhibitors via a fluorescence-based single-stranded DNA deaminase assay. [Related pubchem assays (depositor defined):AID493011, AID493024]. Type of assay: functional.
Assay [2] concerns the target T2, DNA dC->dU-editing enzyme APOBEC-3G (Homo sapiens, UniProt Q9HC16). Type of assay: functional.
Assay [3] is described as follows: viability loss in THP-1 monocytes – THP-1 cells, cytotoxicity control for Vif-APOBEC3G degradation inhibitor project, dose response (AID 1117359). The class given is functional. Conditions: THP-1.
Assay [4] addresses T3, Runt-related transcription factor 1/Core-binding factor subunit beta (Homo sapiens, UniProt Q01196+Q13951). In words: Confirmation of compounds inhibiting the binding between the RUNX1 Runt domain and CBFb-SMMHC via a fluorescence resonance energy transfer (FRET) assay. [Related pubchem assays (depositor defined):AID1434, AID1438, AID1496, AID1550, AID1645]. The class given is protein assay.

For assay [5], the target named is Induced myeloid leukemia cell differentiation protein Mcl-1 (Homo sapiens, UniProt Q07820). The class given is functional.
Chain of Induced myeloid leukemia cell differentiation protein Mcl-1 (Q07820 whole entry): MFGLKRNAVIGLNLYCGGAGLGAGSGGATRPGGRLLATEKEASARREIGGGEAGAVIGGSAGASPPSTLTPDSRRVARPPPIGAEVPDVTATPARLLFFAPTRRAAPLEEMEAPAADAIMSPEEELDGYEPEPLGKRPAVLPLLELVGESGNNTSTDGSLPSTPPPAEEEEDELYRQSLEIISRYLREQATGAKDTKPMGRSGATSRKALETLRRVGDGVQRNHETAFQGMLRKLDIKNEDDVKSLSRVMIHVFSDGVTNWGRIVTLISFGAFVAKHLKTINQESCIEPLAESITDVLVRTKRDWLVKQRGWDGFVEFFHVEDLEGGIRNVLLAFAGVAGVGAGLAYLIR
Assay [6] addresses T4, DNA repair protein RAD52 homolog (Homo sapiens, UniProt P43351).
T4 sequence (P43351 whole entry): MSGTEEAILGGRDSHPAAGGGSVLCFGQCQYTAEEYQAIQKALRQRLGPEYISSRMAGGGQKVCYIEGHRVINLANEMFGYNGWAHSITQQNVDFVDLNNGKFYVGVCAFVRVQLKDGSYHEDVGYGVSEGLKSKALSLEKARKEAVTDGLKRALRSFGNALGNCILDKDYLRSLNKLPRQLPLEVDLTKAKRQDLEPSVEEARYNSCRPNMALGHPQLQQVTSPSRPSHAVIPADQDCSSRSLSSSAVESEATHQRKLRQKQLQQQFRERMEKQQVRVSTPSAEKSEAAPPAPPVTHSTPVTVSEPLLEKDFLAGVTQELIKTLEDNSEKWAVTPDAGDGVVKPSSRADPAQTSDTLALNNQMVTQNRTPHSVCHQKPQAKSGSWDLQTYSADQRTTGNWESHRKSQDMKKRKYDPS
Type of assay: functional, biochemical.

Another assay deals with Mu-type opioid receptor (Homo sapiens, UniProt P35372). Type of assay: functional, cell-based.
Chain of Mu-type opioid receptor (P35372 whole entry, the tested form may be a part): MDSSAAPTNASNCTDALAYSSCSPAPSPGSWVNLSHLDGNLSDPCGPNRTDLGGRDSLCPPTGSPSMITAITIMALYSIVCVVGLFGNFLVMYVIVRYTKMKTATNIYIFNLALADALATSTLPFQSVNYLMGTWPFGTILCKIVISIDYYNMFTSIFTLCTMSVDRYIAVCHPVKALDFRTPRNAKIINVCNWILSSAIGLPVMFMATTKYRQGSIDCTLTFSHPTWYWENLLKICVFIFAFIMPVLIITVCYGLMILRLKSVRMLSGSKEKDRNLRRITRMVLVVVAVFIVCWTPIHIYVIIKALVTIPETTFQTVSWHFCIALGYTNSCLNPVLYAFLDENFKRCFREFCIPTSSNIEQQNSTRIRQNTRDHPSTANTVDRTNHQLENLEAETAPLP
Assay [7] addresses T3, Runt-related transcription factor 1/Core-binding factor subunit beta. The experiment in a line: disruptors of Runt domain/CBFb-SMMHC interaction – biochemical, FRET, Cerulean-Runt, Venus-CBFb-SMMHC, uHTS, […] (AID 1434). Type of assay: protein assay.
Assay [8] has as its target 5-hydroxytryptamine receptor 2A (Mus musculus, UniProt P35363). The class given is functional, cell-based.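 Further: CHO-K1 cells with tagged receptor and beta-arrestin; agonist potency measured as compound-induced activation of the receptor.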
Assay [9] addresses Eukaryotic translation initiation factor 4E (Mus musculus, UniProt P63073). The experiment in a line: blockers of eIF4G binding by eIF4E – biochemical, TR-FRET, dose response (AID 855).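 Further: potency for disrupting eIF4E binding to eIF4GI seen as loss of FRET.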 The class given is functional.
The target in assay [10] is T3, Runt-related transcription factor 1/Core-binding factor subunit beta. The experiment in a line: Confirmation of compounds inhibiting the binding between the RUNX1 Runt domain and CBFb-SMMHC via a time resolved fluorescence resonance energy transfer (TR-FRET) assay. [Related pubchem assays (depositor defined):AID1434, AID1438, AID1496, AID1560, AID1645]. The class given is protein assay.

The target of assay [11] is T5, RNA-binding protein pos-1 (Caenorhabditis elegans, UniProt G5EF15).
T5 sequence (G5EF15 whole entry): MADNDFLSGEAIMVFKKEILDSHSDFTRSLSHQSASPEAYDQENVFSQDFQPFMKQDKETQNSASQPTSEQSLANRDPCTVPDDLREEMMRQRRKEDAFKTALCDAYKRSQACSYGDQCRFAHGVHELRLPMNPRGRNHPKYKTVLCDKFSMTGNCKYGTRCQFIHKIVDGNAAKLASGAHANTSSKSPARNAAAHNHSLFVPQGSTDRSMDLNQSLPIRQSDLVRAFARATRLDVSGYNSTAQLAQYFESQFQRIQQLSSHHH
In words: disruptors of C. elegans POS-1 RNA interaction – biochemical, fluorescence polarization, dose response (AID 1964).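 Further: purified POS-1 fused to maltose binding protein made in E. coli; potency of compounds blocking POS-1 binding to fluorescent RNA.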

In the next assay the target is Large T antigen (Simian virus 40, UniProt P03070). Type of assay: functional, Betapolyomavirus macacae.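 Further: Confirmatory-stage PubChem screen for compounds that inhibit SV40 T antigen.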
Chain of Large T antigen (P03070 whole entry): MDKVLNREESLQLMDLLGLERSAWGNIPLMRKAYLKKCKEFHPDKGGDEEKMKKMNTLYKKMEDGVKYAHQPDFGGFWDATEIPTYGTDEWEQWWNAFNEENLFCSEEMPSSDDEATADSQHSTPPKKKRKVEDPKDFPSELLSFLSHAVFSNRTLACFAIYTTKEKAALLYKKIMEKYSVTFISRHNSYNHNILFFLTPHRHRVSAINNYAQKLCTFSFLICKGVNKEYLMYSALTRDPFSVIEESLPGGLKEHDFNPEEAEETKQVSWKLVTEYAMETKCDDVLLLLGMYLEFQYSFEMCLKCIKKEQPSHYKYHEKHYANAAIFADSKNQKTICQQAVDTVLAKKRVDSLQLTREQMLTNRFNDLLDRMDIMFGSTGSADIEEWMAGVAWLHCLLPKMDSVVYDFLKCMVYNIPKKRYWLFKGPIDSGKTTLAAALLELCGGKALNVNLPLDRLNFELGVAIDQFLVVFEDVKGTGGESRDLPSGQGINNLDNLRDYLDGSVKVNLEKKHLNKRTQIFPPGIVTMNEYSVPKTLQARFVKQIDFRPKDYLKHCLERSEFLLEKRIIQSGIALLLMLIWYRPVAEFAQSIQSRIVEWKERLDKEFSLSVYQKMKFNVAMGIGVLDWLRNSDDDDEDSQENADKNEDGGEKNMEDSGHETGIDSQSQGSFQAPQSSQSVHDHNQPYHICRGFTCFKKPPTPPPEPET
Assay [12] has as its target Glutathione-S-transferase (Schistosoma japonicum, UniProt Q26513). In words: GST-antibody interaction or FRET quenching – biochemical, TR-FRET, artefact control for Vif-APOBEC3G degradation inhibitor project, dose response (AID 1117362). Type of assay: functional. Background: Time-resolved FRET reads energy transfer from a long-lived donor to a nearby acceptor.
The target in assay [13] is T6, Zinc finger protein mex-5 (Caenorhabditis elegans, UniProt Q9XUB2).
T6 sequence (Q9XUB2 whole entry): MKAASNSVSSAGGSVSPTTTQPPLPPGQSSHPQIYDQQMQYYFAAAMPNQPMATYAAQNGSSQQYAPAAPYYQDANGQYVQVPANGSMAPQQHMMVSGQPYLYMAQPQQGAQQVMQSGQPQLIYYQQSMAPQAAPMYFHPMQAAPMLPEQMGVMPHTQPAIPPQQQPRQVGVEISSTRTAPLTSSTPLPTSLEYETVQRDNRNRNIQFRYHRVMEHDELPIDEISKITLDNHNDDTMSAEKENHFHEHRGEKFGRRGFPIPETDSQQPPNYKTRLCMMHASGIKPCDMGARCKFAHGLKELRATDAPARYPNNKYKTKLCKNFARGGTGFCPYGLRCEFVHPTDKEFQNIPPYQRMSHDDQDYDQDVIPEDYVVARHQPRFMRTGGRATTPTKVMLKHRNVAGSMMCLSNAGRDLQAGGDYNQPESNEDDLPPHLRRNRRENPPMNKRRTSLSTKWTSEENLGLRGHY
The experiment in a line: potency of MEX-5 RNA-binding blockers – biochemical, C. elegans, fluorescence polarization, dose response (AID 1960). A general note: Fluorescence polarisation rises when a labelled molecule tumbles more slowly, as on binding a larger partner.

In assay [14] the target is T7, Mannose-6-phosphate isomerase (Homo sapiens, UniProt P34949).
T7 sequence (P34949 whole entry): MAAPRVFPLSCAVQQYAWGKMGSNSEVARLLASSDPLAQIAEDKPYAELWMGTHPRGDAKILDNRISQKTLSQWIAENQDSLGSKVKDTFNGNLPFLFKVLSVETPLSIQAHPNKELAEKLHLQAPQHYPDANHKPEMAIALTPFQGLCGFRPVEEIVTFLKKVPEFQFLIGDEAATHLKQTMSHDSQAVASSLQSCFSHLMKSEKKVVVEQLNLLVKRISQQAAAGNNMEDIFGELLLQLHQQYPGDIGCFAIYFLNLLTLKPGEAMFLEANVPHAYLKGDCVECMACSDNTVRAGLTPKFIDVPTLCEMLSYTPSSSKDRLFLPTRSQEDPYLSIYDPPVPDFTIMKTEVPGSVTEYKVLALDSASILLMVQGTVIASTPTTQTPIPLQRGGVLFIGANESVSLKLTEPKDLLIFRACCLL
The experiment in a line: MPI inhibition at elevated mannose 6-phosphate – biochemical, fluorescence intensity, high mannose 6-phosphate, primary screen (AID 1220).

Assay [15] has as its target Glucose-6-phosphate 1-dehydrogenase (Homo sapiens, UniProt P11413). The experiment in a line: inhibition of Homo sapiens G6PD, dose series – biochemical, fluorescence, selectivity assay for P. falciparum G6PD inhibitor project, dose response (AID 504792). The class given is functional.
The target of assay [16] is T3, Runt-related transcription factor 1/Core-binding factor subunit beta. The experiment in a line: Runt domain/CBFb-SMMHC interaction disruptors – biochemical, TR-FRET (AID 1438). The class given is protein assay.
The target in assay [17] is T2, DNA dC->dU-editing enzyme APOBEC-3G. In words: Dose Response confirmation of small molecule APOBEC3G DNA Deaminase Inhibitors via a fluorescence-based single-stranded DNA deaminase assay. [Related pubchem assays (depositor defined):AID493012, AID493028]. Type of assay: functional.
The target in assay [18] is 1-acylglycerol-3-phosphate O-acyltransferase ABHD5/Perilipin-5 (Homo sapiens, UniProt Q00G26+Q8WTS1). In words: Luminescence-based biochemical high throughput dose response assay for inhibitors of the interaction of the lipase co-activator protein, abhydrolase domain containing 5 (ABHD5) with perilipin-5 (MLDP; PLIN5) (2K validation set). [Related pubchem assays (depositor defined):AID493035, AID493241].
Chain of 1-acylglycerol-3-phosphate O-acyltransferase ABHD5/Perilipin-5 (Q00G26 whole entry, the tested form may be a part): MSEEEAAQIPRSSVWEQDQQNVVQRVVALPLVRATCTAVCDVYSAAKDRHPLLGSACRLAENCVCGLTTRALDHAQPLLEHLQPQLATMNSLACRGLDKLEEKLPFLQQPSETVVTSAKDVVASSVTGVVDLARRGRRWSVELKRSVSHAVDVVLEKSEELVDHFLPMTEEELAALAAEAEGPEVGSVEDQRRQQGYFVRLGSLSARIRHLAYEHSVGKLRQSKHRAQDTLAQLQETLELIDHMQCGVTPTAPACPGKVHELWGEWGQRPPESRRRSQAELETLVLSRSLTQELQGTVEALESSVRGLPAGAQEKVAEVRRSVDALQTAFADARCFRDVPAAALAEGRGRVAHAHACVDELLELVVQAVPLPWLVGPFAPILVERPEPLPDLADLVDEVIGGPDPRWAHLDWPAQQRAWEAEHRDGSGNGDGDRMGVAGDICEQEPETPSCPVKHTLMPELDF
Chain of 1-acylglycerol-3-phosphate O-acyltransferase ABHD5/Perilipin-5 (Q8WTS1 whole entry, the tested form may be a part): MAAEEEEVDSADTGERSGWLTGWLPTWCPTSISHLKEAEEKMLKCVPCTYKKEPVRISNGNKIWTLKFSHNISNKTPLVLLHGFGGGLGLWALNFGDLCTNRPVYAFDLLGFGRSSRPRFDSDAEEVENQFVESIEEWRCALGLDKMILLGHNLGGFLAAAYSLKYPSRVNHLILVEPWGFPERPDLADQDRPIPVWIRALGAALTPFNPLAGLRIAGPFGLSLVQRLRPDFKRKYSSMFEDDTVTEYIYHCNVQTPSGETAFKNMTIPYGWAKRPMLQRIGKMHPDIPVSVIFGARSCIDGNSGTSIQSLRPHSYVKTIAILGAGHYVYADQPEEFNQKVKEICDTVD

A further assay concerns the target Cytochrome P450 2C9 (Homo sapiens, UniProt P11712).
Another assay deals with Perilipin-1/ABHD5 (Homo sapiens, UniProt O60240+Q8WTS1). In words: Luminescence-based biochemical high throughput dose response assay for inhibitors of the interaction of the lipase co-activator protein, abhydrolase domain containing 5 (ABHD5) with perilipin-1 (PLIN1) (2K validation set). [Related pubchem assays (depositor defined):AID493027, AID493057].
Chain of Perilipin-1/ABHD5 (Q8WTS1 whole entry, the tested form may be a part): as above
Chain of Perilipin-1/ABHD5 (O60240 whole entry, the tested form may be a part): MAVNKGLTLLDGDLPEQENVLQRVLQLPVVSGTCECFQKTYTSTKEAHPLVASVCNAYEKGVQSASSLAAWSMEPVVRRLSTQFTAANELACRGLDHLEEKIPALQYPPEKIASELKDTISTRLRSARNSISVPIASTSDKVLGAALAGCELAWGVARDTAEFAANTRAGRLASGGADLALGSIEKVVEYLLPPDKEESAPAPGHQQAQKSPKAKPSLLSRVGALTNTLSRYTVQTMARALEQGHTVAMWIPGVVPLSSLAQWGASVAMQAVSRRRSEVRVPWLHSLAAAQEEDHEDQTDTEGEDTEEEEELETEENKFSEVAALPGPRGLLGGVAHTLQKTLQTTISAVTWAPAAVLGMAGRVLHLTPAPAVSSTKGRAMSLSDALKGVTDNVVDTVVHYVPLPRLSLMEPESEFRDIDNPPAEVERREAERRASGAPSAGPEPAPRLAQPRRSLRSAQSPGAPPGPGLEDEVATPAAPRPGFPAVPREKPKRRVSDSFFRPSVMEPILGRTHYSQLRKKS

Structures are written as SMILES. “And” between values parts separate entries of the source, which are not always exact repeats. Equal values may be shown once. Where a name gives a salt, the structure may show the parent alone. The source made the active and inactive calls.

T3 sequence (Q01196 whole entry, the tested form may be a part): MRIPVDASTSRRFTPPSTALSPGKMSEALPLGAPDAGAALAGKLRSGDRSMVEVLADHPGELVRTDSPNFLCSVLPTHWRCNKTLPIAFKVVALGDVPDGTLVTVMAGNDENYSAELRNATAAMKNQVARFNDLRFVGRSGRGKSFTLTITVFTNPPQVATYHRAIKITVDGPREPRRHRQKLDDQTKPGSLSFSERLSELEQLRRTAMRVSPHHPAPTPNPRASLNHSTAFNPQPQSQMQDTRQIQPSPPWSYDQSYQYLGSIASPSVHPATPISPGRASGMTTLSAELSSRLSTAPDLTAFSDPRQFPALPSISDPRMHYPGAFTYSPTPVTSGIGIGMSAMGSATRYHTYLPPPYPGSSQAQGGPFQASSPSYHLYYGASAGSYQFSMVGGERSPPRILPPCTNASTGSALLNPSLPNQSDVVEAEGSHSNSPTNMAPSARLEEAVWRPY
T3 sequence (Q13951 whole entry, the tested form may be a part): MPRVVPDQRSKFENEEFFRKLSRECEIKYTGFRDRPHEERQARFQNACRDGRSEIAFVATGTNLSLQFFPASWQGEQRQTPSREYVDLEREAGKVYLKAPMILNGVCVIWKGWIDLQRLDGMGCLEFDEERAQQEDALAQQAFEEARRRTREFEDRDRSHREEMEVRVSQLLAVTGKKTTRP
Chain of 5-hydroxytryptamine receptor 2A (P35363 whole entry): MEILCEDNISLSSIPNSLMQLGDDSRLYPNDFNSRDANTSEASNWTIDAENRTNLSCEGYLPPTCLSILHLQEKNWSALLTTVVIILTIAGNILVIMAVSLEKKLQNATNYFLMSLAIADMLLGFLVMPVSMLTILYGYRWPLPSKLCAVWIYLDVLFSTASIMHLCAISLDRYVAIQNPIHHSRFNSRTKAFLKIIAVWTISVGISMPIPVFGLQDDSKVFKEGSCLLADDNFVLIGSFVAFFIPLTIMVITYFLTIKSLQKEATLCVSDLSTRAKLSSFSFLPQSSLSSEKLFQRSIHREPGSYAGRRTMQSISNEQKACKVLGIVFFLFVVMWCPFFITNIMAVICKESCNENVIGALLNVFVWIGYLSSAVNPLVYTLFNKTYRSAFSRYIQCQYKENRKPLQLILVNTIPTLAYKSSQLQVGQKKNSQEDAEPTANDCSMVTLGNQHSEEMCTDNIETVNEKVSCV
T2 sequence (Q9HC16 whole entry): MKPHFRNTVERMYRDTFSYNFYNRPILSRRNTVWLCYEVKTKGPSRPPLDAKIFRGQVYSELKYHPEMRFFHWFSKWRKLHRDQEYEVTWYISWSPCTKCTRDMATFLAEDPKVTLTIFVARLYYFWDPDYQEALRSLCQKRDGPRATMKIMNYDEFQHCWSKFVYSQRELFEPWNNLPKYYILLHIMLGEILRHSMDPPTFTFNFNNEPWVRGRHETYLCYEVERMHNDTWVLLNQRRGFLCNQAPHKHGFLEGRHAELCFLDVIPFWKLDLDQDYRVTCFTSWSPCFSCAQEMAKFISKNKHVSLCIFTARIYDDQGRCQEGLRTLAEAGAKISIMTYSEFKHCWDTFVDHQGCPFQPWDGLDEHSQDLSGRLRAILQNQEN
Chain of Glutathione-S-transferase (Q26513 whole entry): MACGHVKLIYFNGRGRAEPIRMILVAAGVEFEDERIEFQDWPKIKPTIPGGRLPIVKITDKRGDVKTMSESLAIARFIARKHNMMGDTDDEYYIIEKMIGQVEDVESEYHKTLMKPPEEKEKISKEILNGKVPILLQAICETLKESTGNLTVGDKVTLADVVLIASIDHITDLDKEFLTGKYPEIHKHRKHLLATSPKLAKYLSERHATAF
Chain of Eukaryotic translation initiation factor 4E (P63073 whole entry, the tested form may be a part): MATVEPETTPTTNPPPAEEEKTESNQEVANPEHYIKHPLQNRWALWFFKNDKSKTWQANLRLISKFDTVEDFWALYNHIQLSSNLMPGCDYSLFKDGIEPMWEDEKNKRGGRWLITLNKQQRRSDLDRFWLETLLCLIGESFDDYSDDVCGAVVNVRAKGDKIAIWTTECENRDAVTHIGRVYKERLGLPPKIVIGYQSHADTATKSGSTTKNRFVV

For `O=C(O)COc1ccc2c(c1)OCCO2`, the IC50 at Coagulation factor XII is > 50 µM (inactive).

As to `CCc1ccc(OCC(=O)N/N=C\c2ccco2)c([N+](=O)[O-])c1`, the half-maximal inhibitory concentration (IC50) is 18.6 µM (active) in [1] and 39.8 µM (active) in [2].

`CN1CCc2cccc3c2[C@H]1Cc1ccc(O)c(O)c1-3` [APOMORPHINE HYDROCHLORIDE]: the cytotoxic concentration (CC50) in assay [3] is 16.9 µM (active). Further, the half-maximal inhibitory concentration (IC50) was 13.4 µM (active) in assay [4]; 4.38 µM (active) in assay [5]; 9.66 µM (active) in [7]; > 64 µM (inactive) in assay [9]; 18.9 µM (active) in assay [10]; > 100 µM (active) and 15.3 µM (active) at Large T antigen. Besides, the half-maximal inhibitory concentration (IC50) is 74.8 µM (active) in assay [12]; 14.6 µM (active) in assay [14]; 34.6 µM (inactive) in assay [15]; 9.81 µM (active) in [16]; 26.2 µM (active) in assay [17]. The concentration at half-maximal activity (AC50) in assay [6] was 7.1 µM (active). The EC50 was 92.5 µM (inactive) and 92.4 µM (inactive) on Mu-type opioid receptor; 6.41 nM (active) and 8.15 nM (active) in [8]; 16.9 µM (inconclusive) in assay [11]; 4.42 µM (active) in assay [13].

As for `CC1=CC(=O)c2ccccc2C1=O` [MENADIONE], the half-maximal inhibitory concentration (IC50) in assay [18] is 9.47 µM (active); on Perilipin-1/ABHD5, 7.9 µM (active). In addition, the AC50 at Cytochrome P450 2C9 was 6.31 µM (inconclusive).

Usually IC50 stands for the concentration needed to halve the response being measured. Broadly, the CC50 is the concentration at which the toxic effect on the cells reaches its halfway point. Broadly, the AC50 is the concentration at which the activity in the assay is half-maximal. Broadly, the EC50 is the midpoint of the concentration-response curve.

(Values after ChEMBL document CHEMBL1201862, “PubChem BioAssay data set” (2004).)
